Measured values from PubChem BioAssay (NCI).
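Cells were grown in 96-well plates and exposed to each compound for 48 hours at five concentrations; endpoints were interpolated linearly between bracketing concentrations, or set to the highest concentration if not reached. Abbreviation: GI50, concentration required for 50% inhibition of growth. TGI is the concentration that stops growth completely.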

Columns and labels:
Assay in all cases: NCI tumour cell line growth inhibition, 48 h
786-0 renal = tested on: 786-0 renal
A498 renal = tested on: A498 renal
A549 NSCLC = tested on: A549 NSCLC
ACHN renal = tested on: ACHN renal
BT-549 breast = tested on: BT-549 breast
CAKI-1 renal = tested on: CAKI-1 renal
CCRF-CEM leukemia = tested on: CCRF-CEM leukemia
COLO 205 colon = tested on: COLO 205 colon
DU-145 prostate = tested on: DU-145 prostate
EKVX NSCLC = tested on: EKVX NSCLC
HCC-2998 colon = tested on: HCC-2998 colon
HCT-116 colon = tested on: HCT-116 colon
HCT-15 colon = tested on: HCT-15 colon
HL-60(TB) leukemia = tested on: HL-60(TB) leukemia
HOP-62 NSCLC = tested on: HOP-62 NSCLC
HOP-92 NSCLC = tested on: HOP-92 NSCLC
HS 578T breast = tested on: HS 578T breast
HT29 colon = tested on: HT29 colon
IGROV1 ovarian = tested on: IGROV1 ovarian
K-562 leukemia = tested on: K-562 leukemia
KM12 colon = tested on: KM12 colon
LOX IMVI melanoma = tested on: LOX IMVI melanoma
M14 melanoma = tested on: M14 melanoma
MCF7 breast = tested on: MCF7 breast
MDA-MB-231 breast = tested on: MDA-MB-231 breast
MDA-MB-435 = tested on: MDA-MB-435
MOLT-4 leukemia = tested on: MOLT-4 leukemia
NCI-H226 lung = tested on: NCI-H226 lung
NCI-H23 lung = tested on: NCI-H23 lung
NCI-H460 lung = tested on: NCI-H460 lung
NCI/ADR-RES ovarian = tested on: NCI/ADR-RES ovarian
OVCAR-3 ovarian = tested on: OVCAR-3 ovarian
OVCAR-4 ovarian = tested on: OVCAR-4 ovarian
OVCAR-5 ovarian = tested on: OVCAR-5 ovarian
OVCAR-8 ovarian = tested on: OVCAR-8 ovarian
PC-3 prostate = tested on: PC-3 prostate
RXF 393 renal = tested on: RXF 393 renal
SF-268 CNS = tested on: SF-268 CNS
SF-295 CNS = tested on: SF-295 CNS
SF-539 CNS = tested on: SF-539 CNS
SK-MEL-2 melanoma = tested on: SK-MEL-2 melanoma
SK-MEL-28 melanoma = tested on: SK-MEL-28 melanoma
SK-MEL-5 melanoma = tested on: SK-MEL-5 melanoma
SK-OV-3 ovarian = tested on: SK-OV-3 ovarian
SN12C renal = tested on: SN12C renal
SNB-19 CNS = tested on: SNB-19 CNS
SNB-75 CNS = tested on: SNB-75 CNS
SR leukemia = tested on: SR leukemia
SW-620 colon = tested on: SW-620 colon
T-47D breast = tested on: T-47D breast
TK-10 renal = tested on: TK-10 renal
U251 CNS = tested on: U251 CNS
UACC-257 melanoma = tested on: UACC-257 melanoma
UACC-62 melanoma = tested on: UACC-62 melanoma
UO-31 renal = tested on: UO-31 renal

`COc1cc(-c2nn(-c3ccc(NC(=O)Nc4ccc(Cl)c(Cl)c4)cc3)cc2-c2ccncc2)ccc1Cl` showed a GI50 (786-0 renal) of 2.4 µM, a TGI (786-0 renal) of 5.43 µM and a GI50 (A498 renal) of 2 µM. For the same compound, the TGI (A498 renal) was 8.27 µM, the GI50 (A549 NSCLC) was 3.58 µM and the TGI (A549 NSCLC) was greater than 100 µM. It also gave a GI50 (ACHN renal) of 3.35 µM, a TGI (ACHN renal) greater than 100 µM and a GI50 (BT-549 breast) of 3.35 µM. It also gave a TGI (BT-549 breast) of 11.2 µM, a GI50 (CAKI-1 renal) of 2.59 µM and a TGI (CAKI-1 renal) of 7.68 µM. It also gave a GI50 (CCRF-CEM leukemia) of 3.16 µM, a TGI (CCRF-CEM leukemia) greater than 100 µM and a GI50 (COLO 205 colon) of 1.97 µM. The TGI (COLO 205 colon) was 4.2 µM, the GI50 (DU-145 prostate) was 4.33 µM and the TGI (DU-145 prostate) was 69.7 µM. The GI50 (EKVX NSCLC) was 2.61 µM, the TGI (EKVX NSCLC) was 15.3 µM and the GI50 (HCC-2998 colon) was 2.62 µM. The TGI (HCC-2998 colon) was 7.65 µM, the GI50 (HCT-116 colon) was 3.08 µM and the TGI (HCT-116 colon) was 11 µM. It also gave a GI50 (HCT-15 colon) of 2.88 µM, a TGI (HCT-15 colon) of 14.1 µM and a GI50 (HL-60(TB) leukemia) of 3.55 µM. The TGI (HL-60(TB) leukemia) was greater than 100 µM, the GI50 (HOP-62 NSCLC) was 3.79 µM and the TGI (HOP-62 NSCLC) was 22.3 µM. For the same compound, the GI50 (HOP-92 NSCLC) was 2.35 µM, the TGI (HOP-92 NSCLC) was 11.9 µM and the GI50 (HS 578T breast) was 3.22 µM. For the same compound, the TGI (HS 578T breast) was 11.9 µM, the GI50 (HT29 colon) was 3.52 µM and the TGI (HT29 colon) was 17.1 µM. It also gave a GI50 (IGROV1 ovarian) of 4.88 µM, a TGI (IGROV1 ovarian) greater than 100 µM and a GI50 (K-562 leukemia) of 3.51 µM. It also gave a TGI (K-562 leukemia) greater than 100 µM, a GI50 (KM12 colon) of 2.62 µM and a TGI (KM12 colon) of 7.41 µM. For the same compound, the GI50 (LOX IMVI melanoma) was 1.98 µM, the TGI (LOX IMVI melanoma) was 4.75 µM and the GI50 (M14 melanoma) was 2.56 µM. The TGI (M14 melanoma) was 6.87 µM, the GI50 (MCF7 breast) was 3.35 µM and the TGI (MCF7 breast) was greater than 100 µM. The GI50 (MDA-MB-231 breast) was 2.62 µM, the TGI (MDA-MB-231 breast) was 7.7 µM and the GI50 (MDA-MB-435) was 2.87 µM. The TGI (MDA-MB-435) was 8.8 µM, the GI50 (MOLT-4 leukemia) was 3.27 µM and the TGI (MOLT-4 leukemia) was greater than 100 µM. It also gave a GI50 (NCI-H226 lung) of 4.19 µM, a TGI (NCI-H226 lung) of 69.1 µM and a GI50 (NCI-H23 lung) of 3.26 µM. For the same compound, the TGI (NCI-H23 lung) was 32.3 µM, the GI50 (NCI-H460 lung) was 2.42 µM and the TGI (NCI-H460 lung) was 5.64 µM. The GI50 (NCI/ADR-RES ovarian) was 3.24 µM, the TGI (NCI/ADR-RES ovarian) was greater than 100 µM and the GI50 (OVCAR-3 ovarian) was 3.02 µM. For the same compound, the TGI (OVCAR-3 ovarian) was 8.63 µM, the GI50 (OVCAR-4 ovarian) was 4.41 µM and the TGI (OVCAR-4 ovarian) was greater than 100 µM. The GI50 (OVCAR-5 ovarian) was 2.54 µM, the TGI (OVCAR-5 ovarian) was greater than 100 µM and the GI50 (OVCAR-8 ovarian) was 3.49 µM. For the same compound, the TGI (OVCAR-8 ovarian) was greater than 100 µM, the GI50 (PC-3 prostate) was 2.89 µM and the TGI (PC-3 prostate) was greater than 100 µM. It also gave a GI50 (RXF 393 renal) of 2.16 µM, a TGI (RXF 393 renal) of 7.49 µM and a GI50 (SF-268 CNS) of 4.57 µM. For the same compound, the TGI (SF-268 CNS) was greater than 100 µM, the GI50 (SF-295 CNS) was 1.82 µM and the TGI (SF-295 CNS) was 4.4 µM. The GI50 (SF-539 CNS) was 2.89 µM, the TGI (SF-539 CNS) was 33.6 µM and the GI50 (SK-MEL-2 melanoma) was 3.44 µM. For the same compound, the TGI (SK-MEL-2 melanoma) was 39.7 µM, the GI50 (SK-MEL-28 melanoma) was 3.94 µM and the TGI (SK-MEL-28 melanoma) was 17.9 µM. It also gave a GI50 (SK-MEL-5 melanoma) of 2.48 µM, a TGI (SK-MEL-5 melanoma) of 8.29 µM and a GI50 (SK-OV-3 ovarian) of 3.96 µM. For the same compound, the TGI (SK-OV-3 ovarian) was greater than 100 µM, the GI50 (SN12C renal) was 3.96 µM and the TGI (SN12C renal) was greater than 100 µM. For the same compound, the GI50 (SNB-19 CNS) was 5.29 µM, the TGI (SNB-19 CNS) was greater than 100 µM and the GI50 (SNB-75 CNS) was 2.13 µM. The TGI (SNB-75 CNS) was 9.75 µM, the GI50 (SR leukemia) was 3.77 µM and the TGI (SR leukemia) was greater than 100 µM. For the same compound, the GI50 (SW-620 colon) was 4.3 µM, the TGI (SW-620 colon) was 19.4 µM and the GI50 (T-47D breast) was 3.02 µM. The TGI (T-47D breast) was 54.6 µM, the GI50 (TK-10 renal) was 6.5 µM and the TGI (TK-10 renal) was greater than 100 µM. The GI50 (U251 CNS) was 2.84 µM, the TGI (U251 CNS) was 15.1 µM and the GI50 (UACC-257 melanoma) was 3.17 µM. The TGI (UACC-257 melanoma) was 23.5 µM, the GI50 (UACC-62 melanoma) was 3.35 µM and the TGI (UACC-62 melanoma) was 13.3 µM. For the same compound, the GI50 (UO-31 renal) was 2.74 µM and the TGI (UO-31 renal) was 11.3 µM.
